Test results: paper PMC6476888, “Design and synthesis of anticancer 1-hydroxynaphthalene-2-carboxanilides with a p53 independent mechanism of action” (Scientific Reports, 2019)
Values joined by “and” are separate entries in the source; they are usually repeats but may differ in a detail not shown here. Equal entries are not always repeated. “Also recorded” adds a separate entry of the source. Where two headings read alike, the source gives them in different places.

How the values were obtained:
[1] = tested on: HCT116^+/+; test: Antiproliferative assay (MTS, 72 h) on HCT116 wild type; type: cell-based, human; details: for IC50: Homo sapiens, HCT-116
[2] = tested on: HCT116^−/−; test: Antiproliferative assay (MTS, 72 h) on HCT116 with p53 deletion; type: cell-based, human; details: for IC50: Homo sapiens, HCT-116, MTS, 72 h incubation
[3] = tested on: NHDF; test: Cytotoxicity (MTS, 72 h) against normal human fibroblasts; type: cell-based; details: for IC50: Homo sapiens, NHDF, MTS, 72 h incubation
[4] = tested on: CT-DNA; test: Spectrophotometric DNA intercalation assay; type: binding, calf; details: for Changes in absorbance: bound to CT-DNA (18 µM), 1.5 h 37 °C, Tris-HCl pH 7.9; for % hypochromism / Δε: bound to CT-DNA, for CP-31398 first value (312 nm band); for red shift: wavelengths of maximum absorption, individual vs DNA-bound compound
Text: The fused aromatic rings of the naphthalene moiety and halogen substituents in aniline may guarantee good intercalating properties[71],[72]. On the other hand, the intercalation of DNA may explain the high activity against both the wild-type and p53 mutants as was reported for a series of styrylquinolines. Binding to DNA causes the bases to mismatch or cleave, which results in the arrest of the cell cycle and apoptosis. The effectiveness of the p53 system is one of the most important factors in the response to therapy. We tested the intercalating properties of the selected compounds in a spectrophotometric assay on calf-thymus DNA. The absorption spectra of the tested compounds in the absence and presence of CT-DNA are presented in Figure S1 Supplementary Information and the spectral properties with doxorubicine and CP-31398 are summarized in Table 2.
For the DNA binding studies, Calf-thymus DNA (CT-DNA) was purchased from Sigma- Aldrich. The lyophilized CT-DNA was dissolved in 10 mM Tris-HCl, pH 7.9, mixed gently and left overnight at 4 °C. The purity of the CT-DNA solution was determined by measuring the ratio of UV absorbance at 260 and 280 nm. […] Then, the concentration of CT-DNA was determined from the absorbance at 260 nm using an extinction coefficient of 6600 M^−1cm^−1. The tested compounds including DOX and CP-31398 were dissolved to a concentration of 8.35 mM in DMSO, which was then used as the stock solution for preparing the various concentrations (25, 12.5, 6 and 3 µM) in 1 mL in 10 mM of Tris-HCl (pH 7.9). Afterwards, 18 µM CT-DNA was added to the prepared solutions, which were incubated for 1.5 h at 37 °C with occasional vortexing. The absorption spectra were measured using a Hitachi U-2900 spectrophotometer in the range of 200–500 nm. All absorption spectra were imported into OriginPro 8.0 and compared.

[5] = tested on: HCT116 cells; test: AO/EB staining apoptosis assay; type: cell-based, human; details: HCT116 p53^+/+ and p53^−/−, IC50 concentration
Method: Three compounds with a distinct activity were selected for further tests. […] The apoptosis of the cells that were treated with the active compounds was confirmed using the Acridine Orange (AO)/Ethidium Bromide (EB) staining test[70] (Fig. 5).
The dual acridine orange/ethidium bromide (AO/EB) staining method was used for the morphological analysis of apoptosis. The cells were seeded on coverslips at a density of 8·10^5 cells/slide and incubated at 37 °C for 48 h. Then, the medium was removed and solutions of 5 s, 5 u, 7 f and DOX at the IC50 concentration were added. After 24 h, the cells were washed with PBS, and then the cells were incubated in a staining solution (100 μg/mL AO and 100 μg/mL EB in PBS) (Sigma-Aldrich, St. Louis, MO, USA) for 3–4 min. After staining, the coverslips were washed with PBS and fixed with 3.7% paraformaldehyde for 15 min. Observations and photography were performed with a Nikon Eclipse Ni-U fluorescent microscope equipped with the sets of filters for AO and EB (excitation filter 450–490, barrier filter BA520).

[6] = MTS, 72 h incubation, read-out: Activity IC50 HCT116^+/+

SMILES | selectivity for the wild type over p53 null cells [1] | IC50 [1, 6] [nM] | IC50 [2] [nM] | IC50 [3] [nM] | Changes in absorbance [4] | % hypochromism [4] [%] | Δε [4] [M⁻¹ cm⁻¹] | red shift [4] | apoptosis (AO/EB staining) [5] | selectivity towards the p53 null cells (HCT116 p53^−/− vs wild type) [2] | selectivity index ([3]; cytotoxicity against the normal cell line vs HCT116) | IC50 ([1]; submicromolar activity level, read-out: IC50 for the HCT116 wild type) [nM]
O=C(Nc1cc(C(F)(F)F)cc(C(F)(F)F)c1Cl)c1ccc2ccccc2c1O [5u] | roughly four times more active against the wild type | 720 ± 280 | 2720 ± 630 | 16300 ± 1280 | hypochromism | 14 | 922.2 | small red-shift and 2 nm | early and late apoptotic cells | – | – | –
O=C(Nc1ccc(F)c(Cl)c1)c1ccc2ccccc2c1O [5s] | – | 6870 ± 2480 | 830 ± 310 | > 25000 | hypochromism | 6.5 | 255.6 | 2 nm | early and late apoptotic cells | more than eight times more toxic | > 30 | –
O=C(Nc1cc(C(F)(F)F)cc(C(F)(F)F)c1)c1ccc2ccccc2c1O [7f] | – | 460 ± 50 | 350 ± 80 | 3550 ± 760 | rather low hypochromic effect; also recorded: hypochromism | 5.7 | 244.4 | no wavelength shift and 0 nm | early and late apoptotic cells | – | – | 464
